Test results reported in patent US20210283098A1, “Methods and Compositions for Treating Pain and Itch” (YISSUM RESEARCH DEVELOPMENT COMPANY OF THE HEBREW …, priority 2018, published 2021).
Read-outs that look alike come from different tables or passages of the source.

Tests used:
[1] = tested on: male Sprague-Dawley rats; assay: Thermal paw withdrawal latency from radiant heat source (Hargreaves) after peri-sciatic injection; type: in vivo, rat
[2] = tested on: male Sprague-Dawley rats; assay: Motor function score after peri-sciatic injection; type: in vivo, rat
[3] = target: cannabinoid CB2 receptor (Homo sapiens, UniProt P34972); details: cited from earlier work
Sequence of cannabinoid CB2 receptor (P34972 whole entry): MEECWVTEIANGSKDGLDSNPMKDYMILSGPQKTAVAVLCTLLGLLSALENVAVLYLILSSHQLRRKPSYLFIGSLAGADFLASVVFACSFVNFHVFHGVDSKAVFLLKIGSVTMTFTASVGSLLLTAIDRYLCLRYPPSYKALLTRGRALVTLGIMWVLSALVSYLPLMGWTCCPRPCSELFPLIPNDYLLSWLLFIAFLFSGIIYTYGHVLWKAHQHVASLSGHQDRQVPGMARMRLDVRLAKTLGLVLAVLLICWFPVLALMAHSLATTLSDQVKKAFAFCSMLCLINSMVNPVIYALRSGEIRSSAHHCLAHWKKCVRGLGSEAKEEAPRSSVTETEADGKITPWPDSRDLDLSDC

[4] = tested on: TRPV1-HEK-293 cells; details: 1% QX-314, 24 hour treatment; Stueber et al., Anesthesiology, 2016; cited from earlier work
[5] = tested on: TRPV1-HEK-293 cells; assay: Cell viability by double staining with PI and FITC annexin V; type: cell-based
Protocol: Similar treatment with 1 μg/μl capsaicin lead, after 24 hours, to death of more than 50% of cells. […] Representative of 5 experiments. FIG. 4B is a bar graph summarizing the number of dead TRPV1-HEK-293 cells without any treatment (white), treated with 2% chloroprocaine (grey) or 1 μg/μl capsaicin (black) at the indicated time points.

[6] = target: T1, TRPV1 channels (Homo sapiens, UniProt Q8NER1); assay: Calcium imaging (Fura-2) in HEK-293 cells stably expressing hTRPV1; type: cell-based; details: hTRPV1-HEK-293; chloroprocaine 1-5 mM bath applied 120 s; capsaicin short (5 s) focal application
T1 construct: expressed in transfected cells
T1 sequence (Q8NER1 whole entry): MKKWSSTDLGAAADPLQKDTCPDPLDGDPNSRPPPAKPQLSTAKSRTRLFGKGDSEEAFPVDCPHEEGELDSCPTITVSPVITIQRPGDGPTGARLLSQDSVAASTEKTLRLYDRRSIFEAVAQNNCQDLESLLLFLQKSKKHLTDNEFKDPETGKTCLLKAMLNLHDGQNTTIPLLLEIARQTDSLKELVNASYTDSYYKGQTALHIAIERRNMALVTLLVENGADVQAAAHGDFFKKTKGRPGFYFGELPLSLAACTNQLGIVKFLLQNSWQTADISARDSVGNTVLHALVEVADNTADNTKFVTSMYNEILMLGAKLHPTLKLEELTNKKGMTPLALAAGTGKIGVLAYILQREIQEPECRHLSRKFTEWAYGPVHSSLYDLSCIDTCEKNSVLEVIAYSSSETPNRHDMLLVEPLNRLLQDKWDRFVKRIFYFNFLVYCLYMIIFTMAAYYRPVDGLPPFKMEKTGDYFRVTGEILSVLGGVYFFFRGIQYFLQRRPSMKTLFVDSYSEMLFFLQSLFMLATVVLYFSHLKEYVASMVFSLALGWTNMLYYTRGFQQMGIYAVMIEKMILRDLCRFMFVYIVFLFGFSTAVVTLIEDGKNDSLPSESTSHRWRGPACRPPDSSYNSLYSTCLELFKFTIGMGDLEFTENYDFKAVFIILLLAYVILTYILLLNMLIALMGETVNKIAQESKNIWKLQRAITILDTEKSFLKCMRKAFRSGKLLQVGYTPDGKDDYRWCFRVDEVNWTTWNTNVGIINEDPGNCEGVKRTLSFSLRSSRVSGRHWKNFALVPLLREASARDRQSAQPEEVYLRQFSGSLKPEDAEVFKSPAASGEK
Protocol: To that end, we performed calcium imaging experiments on HEK-293 cells which stably express TRPV1 and TRPA1 using HEK-293t cells for control. The cells were cultured in standard DMEM with 10% FBS, 100 U/ml penicillin and 100 μg/ml streptomycin and 2 mM Glutamax. 5 μg/ml blasticidin and 0.35% Zeocin were added for stable expression of hTRPV1 and for induction tetracycline 0.1 μg/ml was added to the medium 16 to 24 hours prior to experiments. Cells were cultivated at 37° C. and 5% CO2 and prepared on Poly-D-Lysin coated coverslips and were loaded with Fura-2 AM (stock in DMSO), for 45-60 minutes in a bath solution composed of (in mM): 145 NaCl, 5 KCl, 2 CaCl2, 1 MgCl2, 10 Glucose, 10 HEPES. They were then rinsed for 45-60 minutes for de-esterification of intracellular AM esters. Intracellular [Ca^2+]i was measured fluoroimetrically as ratiometric excitation at 340 nm and 380 nm (ΔF340/380, emission collected at 510 nm) using an inverted microscope (Nikon Eclipse Ti), equipped with an Epi-Fl attachment; perfect focus system (Nikon, Japan) and Exi Aqua monochromator (QImaging). […] A PV-820 Pneumatic PicoPump (WPI) was used for short (5 s) focal applications of capsaicin. Immediately after the puff application, capsaicin was washed out by perfusing with external solution.

[7] = cited from earlier work

Compound: C=C(C)[C@@H]1CCC(C)=C[C@H]1c1c(O)cc(CCCCC)cc1O [CBD, 2-[(1R,6R)-6-isopropenyl-3-methylcyclohex-2-en-1-yl]-5-pentylbenzene-1,3-diol]
- effect on pain behavior ([1]; Example 6, saline with 1% CBD): did not affect pain behavior
- effect on response to noxious stimuli and motor abilities ([2]; Example 6, 1% CBD alone): did not affect either response to noxious stimuli or motor abilities at all
- affinity for CB2 receptor [3]: very low affinity

Compound: CC[N+](CC)(CC)CC(=O)Nc1c(C)cccc1C [QX-314]
- cell death [4]: 55%

Compound: COc1cc(CNC(=O)CCCC/C=C/C(C)C)ccc1O [capsaicin]
- death of cells ([5]; 1 μg/μl capsaicin, 24 hours): more than 50%
- change in intracellular calcium (Fura-2 fluorescence) [6]: substantial increase in FURA-2 fluorescence

Compound: CCN(CC)CCOC(=O)c1ccc(N)cc1Cl [chloroprocaine]
- differential block ([1]; 0.5% chloroprocaine alone, same motor and pain block): no differential block
- effect on response to noxious heat (PWL normalized to baseline) ([1]; Example 2, peri-sciatic, 0.5% chloroprocaine, 1 μg/μl capsaicin, 52° C.): does not affect the response to noxious heat
- duration of inhibition of response to noxious heat ([1]; Example 6, 0.5% chloroprocaine with vehicle for CBD): about 30 min
- duration of motor block ([2]; Example 2, peri-sciatic injection, 0.5% chloroprocaine alone): 30 min
- duration of motor block ([2]; Example 6, peri-sciatic, 0.5% chloroprocaine with 1% CBD or with vehicle for CBD): 30 min
- cell death ([5]; 2% chloroprocaine, 24 hours treatment): does not cause cell death
- change in intracellular calcium (Fura-2 fluorescence) [6]: does not induce calcium influx

Compound: CCCCNc1ccc(C(=O)OCCN(C)C)cc1 [tetracaine]
- pKa [7]: 8.2
